Assay results reported in the NIST ThermoML archive (doi:10.1016/j.jct.2011.07.008).
Numbers after ± are expanded uncertainties.

Experiments:
[1] = refractive index (Na D-line) (dimensionless); conditions: 298.15 K; 101.33 kPa; Liquid; Standard Abbe refractometry
[2] = 298.15 K; 101.33 kPa; Liquid; Pycnometric method
[3] = mn = molality of the nth substance listed, in mol/kg; conditions: 101 kPa, Liquid; for viscosity: Capillary tube (Ostwald / Ubbelohde) method

In the case of CCOCCOCCO [3,6-dioxa-1-octanol], the refractive index [1] is reported as 1.4253 ± 0.0008 and the mass density [2] is reported as 984.045 ± 1.6 kg/m3.
For CCOCCOCCO [3,6-dioxa-1-octanol] + O, the viscosity ([3]; 275.15 K, m1 = 0.0108) was 1.008 ± 0.041 mPa·s, the viscosity ([3]; 275.15 K, m1 = 0.0203) was 1.015 ± 0.041 mPa·s and the viscosity ([3]; 275.15 K, m1 = 0.0306) was 1.022 ± 0.041 mPa·s. For the same molecule, the viscosity ([3]; 275.15 K, m1 = 0.0409) was 1.029 ± 0.042 mPa·s, the viscosity ([3]; 275.15 K, m1 = 0.0504) was 1.035 ± 0.042 mPa·s and the viscosity ([3]; 275.15 K, m1 = 0.0625) was 1.043 ± 0.042 mPa·s. The viscosity ([3]; 275.15 K, m1 = 0.0707) was 1.048 ± 0.042 mPa·s, the viscosity ([3]; 275.15 K, m1 = 0.0809) was 1.053 ± 0.043 mPa·s and the viscosity ([3]; 275.15 K, m1 = 0.0904) was 1.058 ± 0.043 mPa·s. The viscosity ([3]; 275.15 K, m1 = 0.1025) was 1.047 ± 0.042 mPa·s, the mass density ([3]; 275.15 K, Pycnometric method, m1 = 0.0108) was 1000.05 ± 0.33 kg/m3 and the mass density ([3]; 275.15 K, Pycnometric method, m1 = 0.0203) was 1000.15 ± 0.33 kg/m3. For the same molecule, the mass density ([3]; 275.15 K, Pycnometric method, m1 = 0.0306) was 1000.23 ± 0.33 kg/m3, the mass density ([3]; 275.15 K, Pycnometric method, m1 = 0.0409) was 1000.34 ± 0.33 kg/m3 and the mass density ([3]; 275.15 K, Pycnometric method, m1 = 0.0504) was 1000.42 ± 0.33 kg/m3. The mass density ([3]; 275.15 K, Pycnometric method, m1 = 0.0625) was 1000.52 ± 0.33 kg/m3, the mass density ([3]; 275.15 K, Pycnometric method, m1 = 0.0707) was 1000.62 ± 0.33 kg/m3 and the mass density ([3]; 275.15 K, Pycnometric method, m1 = 0.0809) was 1000.69 ± 0.33 kg/m3. For the same molecule, the mass density ([3]; 275.15 K, Pycnometric method, m1 = 0.0904) was 1000.79 ± 0.33 kg/m3, the mass density ([3]; 275.15 K, Pycnometric method, m1 = 0.1025) was 1000.86 ± 0.33 kg/m3 and the mass density ([3]; 283.15 K, Buoyancy - hydrostatic balance with magnetic suspension - one sinker, m1 = 0.0092) was 999.77 ± 0.23 kg/m3. For the same molecule, the mass density ([3]; 283.15 K, Buoyancy - hydrostatic balance with magnetic suspension - one sinker, m1 = 0.019) was 999.8 ± 0.23 kg/m3, the mass density ([3]; 283.15 K, Buoyancy - hydrostatic balance with magnetic suspension - one sinker, m1 = 0.0291) was 999.96 ± 0.23 kg/m3 and the mass density ([3]; 283.15 K, Buoyancy - hydrostatic balance with magnetic suspension - one sinker, m1 = 0.0416) was 1000.08 ± 0.23 kg/m3. It also gave a mass density ([3]; 283.15 K, Buoyancy - hydrostatic balance with magnetic suspension - one sinker, m1 = 0.0482) of 1000.09 ± 0.23 kg/m3, a mass density ([3]; 283.15 K, Buoyancy - hydrostatic balance with magnetic suspension - one sinker, m1 = 0.062) of 1000.22 ± 0.23 kg/m3 and a mass density ([3]; 283.15 K, Buoyancy - hydrostatic balance with magnetic suspension - one sinker, m1 = 0.0687) of 1000.23 ± 0.23 kg/m3. For the same molecule, the mass density ([3]; 283.15 K, Buoyancy - hydrostatic balance with magnetic suspension - one sinker, m1 = 0.0796) was 1000.34 ± 0.23 kg/m3, the mass density ([3]; 283.15 K, Buoyancy - hydrostatic balance with magnetic suspension - one sinker, m1 = 0.0904) was 1000.41 ± 0.23 kg/m3 and the mass density ([3]; 283.15 K, Buoyancy - hydrostatic balance with magnetic suspension - one sinker, m1 = 0.091) was 1000.39 ± 0.23 kg/m3. For the same molecule, the mass density ([3]; 283.15 K, Buoyancy - hydrostatic balance with magnetic suspension - one sinker, m1 = 0.0998) was 1000.48 ± 0.23 kg/m3, the mass density ([3]; 283.15 K, Buoyancy - hydrostatic balance with magnetic suspension - one sinker, m1 = 0.1019) was 1000.46 ± 0.23 kg/m3 and the viscosity ([3]; 283.15 K, m1 = 0.0092) was 1.004 ± 0.041 mPa·s. For the same molecule, the viscosity ([3]; 283.15 K, m1 = 0.019) was 1.008 ± 0.041 mPa·s, the viscosity ([3]; 283.15 K, m1 = 0.0291) was 1.013 ± 0.041 mPa·s and the viscosity ([3]; 283.15 K, m1 = 0.0416) was 1.019 ± 0.041 mPa·s. The viscosity ([3]; 283.15 K, m1 = 0.0482) was 1.023 ± 0.041 mPa·s, the viscosity ([3]; 283.15 K, m1 = 0.062) was 1.03 ± 0.042 mPa·s and the viscosity ([3]; 283.15 K, m1 = 0.0687) was 1.034 ± 0.042 mPa·s. It also gave a viscosity ([3]; 283.15 K, m1 = 0.0796) of 1.041 ± 0.042 mPa·s, a viscosity ([3]; 283.15 K, m1 = 0.0904) of 1.047 ± 0.042 mPa·s and a viscosity ([3]; 283.15 K, m1 = 0.091) of 1.047 ± 0.042 mPa·s. For the same molecule, the viscosity ([3]; 283.15 K, m1 = 0.0998) was 1.053 ± 0.043 mPa·s and the viscosity ([3]; 283.15 K, m1 = 0.1019) was 1.054 ± 0.043 mPa·s.
COCCO [2-methoxyethan-1-ol] showed a refractive index [1] of 1.4003 ± 0.0008 and a mass density [2] of 959.03 ± 1.5 kg/m3.
